According to US20210395239A1 (Hoffmann-La Roche Inc., priority 2018, published 2021):

molecular target: T1, hTLR9 (Homo sapiens, UniProt Q9NR96); test: HEK293-Blue-hTLR-9 cells assay (SEAP reporter, ODN2006 stimulation); type: cell-based; parameters: host or cells: HEK293 (HEK-Blue hTLR9); details: HEK293-Blue-hTLR9 cells, ODN2006, 20 hrs; read-out: HEK/hTLR9 IC50
T1 sequence (Q9NR96 26-1032): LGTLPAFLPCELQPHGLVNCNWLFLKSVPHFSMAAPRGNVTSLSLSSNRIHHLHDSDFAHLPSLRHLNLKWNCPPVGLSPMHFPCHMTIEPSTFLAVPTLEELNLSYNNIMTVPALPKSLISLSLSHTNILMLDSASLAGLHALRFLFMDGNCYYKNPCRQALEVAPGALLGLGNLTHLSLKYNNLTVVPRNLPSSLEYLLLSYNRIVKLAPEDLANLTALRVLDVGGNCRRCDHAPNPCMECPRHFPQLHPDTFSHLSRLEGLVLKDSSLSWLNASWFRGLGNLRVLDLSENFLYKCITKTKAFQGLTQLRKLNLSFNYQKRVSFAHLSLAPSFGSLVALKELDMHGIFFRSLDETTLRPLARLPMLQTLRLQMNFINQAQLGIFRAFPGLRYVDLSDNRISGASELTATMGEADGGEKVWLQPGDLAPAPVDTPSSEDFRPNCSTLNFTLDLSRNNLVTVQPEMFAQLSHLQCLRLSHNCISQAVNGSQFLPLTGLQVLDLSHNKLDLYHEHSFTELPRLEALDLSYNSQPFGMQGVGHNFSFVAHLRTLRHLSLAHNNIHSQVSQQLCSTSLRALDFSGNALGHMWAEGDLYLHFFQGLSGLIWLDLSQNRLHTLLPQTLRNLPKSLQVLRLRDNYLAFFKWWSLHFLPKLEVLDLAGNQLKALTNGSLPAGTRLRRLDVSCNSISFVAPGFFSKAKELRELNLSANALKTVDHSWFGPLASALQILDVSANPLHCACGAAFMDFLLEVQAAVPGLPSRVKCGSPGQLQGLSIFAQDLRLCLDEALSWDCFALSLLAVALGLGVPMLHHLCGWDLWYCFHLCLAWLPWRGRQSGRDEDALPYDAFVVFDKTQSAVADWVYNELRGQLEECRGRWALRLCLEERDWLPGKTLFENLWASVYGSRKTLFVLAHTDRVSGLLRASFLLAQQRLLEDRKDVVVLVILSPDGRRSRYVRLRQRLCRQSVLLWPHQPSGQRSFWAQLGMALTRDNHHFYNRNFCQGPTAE
Outline: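 Antagonism read as lowered SEAP reporter absorbance (620–655 nm, QUANTI-Blue, 2 h, 37 °C) in supernatants. Before that, ODN2006-stimulated HEK293-Blue cells stably expressing human TLR9 were exposed to compound dilutions at 1% final DMSO for 20 h at 37 °C.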

| SMILES | IC50 |
| --- | --- |
| C[C@@H]1CN(c2ccc(C#N)c3ncccc23)C[C@H](CN2CCN(c3ccc(N4CC(N)C(F)C4)nc3)CC2)O1 (stereo partly drawn) [Example 44, 5-[(2S,6R)-2-[[4-[6-(3-amino-4-fluoro-pyrrolidin-1-yl)-3-pyridyl]piperazin-1-yl]methyl]-6-methyl-morpholin-4-yl]quinoline-8-carbonitrile] | 164 nM |
| Cc1cc(N2CCN(C[C@H]3CN(c4ccc(C#N)c5ncccc45)C[C@@H](C)O3)CC2)nc(NC2CNCC2C#N)n1 (stereo partly drawn) [Example 57, 5-[(2S,6R)-2-[[4-[2-[(4-cyanopyrrolidin-3-yl)amino]-6-methyl-pyrimidin-4-yl]piperazin-1-yl]methyl]-6-methyl-morpholin-4-yl]quinoline-8-carbonitrile] | 38 nM |
| Cc1cc(N2CCN(C[C@H]3CN(c4ccc(C#N)c5ncccc45)C[C@@H](C)O3)CC2)nc(N2C[C@@H]3COC[C@@H](C2)N3)n1 [Example 58, 5-[(2R,6S)-2-methyl-6-[[4-[6-methyl-2-[(1R,5R)-3-oxa-7,9-diazabicyclo[3.3.1]nonan-7-yl]pyrimidin-4-yl]piperazin-1-yl]methyl]morpholin-4-yl]quinoline-8-carbonitrile] | 45 nM |
| CO[C@H]1CN(c2nc(C)cc(N3CCN(C[C@H]4CN(c5ccc(C#N)c6ncccc56)C[C@@H](C)O4)CC3)n2)C[C@H]1N [Example 60, 5-[(2R,6S)-2-methyl-6-[[4-[6-methyl-2-[cis-3-amino-4-methoxy-pyrrolidin-1-yl]pyrimidin-4-yl]piperazin-1-yl]methyl]morpholin-4-yl]quinoline-8-carbonitrile] | 32 nM |
| C[C@@H]1CN(c2ccc(C#N)c3ncccc23)C[C@H](CN2CCN(c3cccc(C4CNCCO4)c3)CC2)O1 (stereo partly drawn) [Example 62, 5-[(2R,6S)-2-methyl-6-[[4-(3-morpholin-2-ylphenyl)piperazin-1-yl]methyl]-morpholin-4-yl]quinoline-8-carbonitrile] | 92 nM |
| Cc1cc(N2CCN(C[C@H]3CN(c4ccc(C#N)c5ncccc45)C[C@@H](C)O3)CC2)nc(N2CC(N)C(F)(F)C2)n1 (stereo partly drawn) [Example 63, 5-[(2S,6R)-2-[[4-[2-(4-amino-3,3-difluoro-pyrrolidin-1-yl)-6-methyl-pyrimidin-4-yl]piperazin-1-yl]methyl]-6-methyl-morpholin-4-yl]quinoline-8-carbonitrile] | 246 nM |
| Cc1cc(N2CCN(C[C@H]3CN(c4ccc(C(F)(F)F)c5nccnc45)C[C@@H](C)O3)CC2)nc(N2CCNCC2)n1 [Example 65, (2R,6S)-2-methyl-6-[[4-(6-methyl-2-piperazin-1-yl-pyrimidin-4-yl)piperazin-1-yl]methyl]-4-[8-(trifluoromethyl)quinoxalin-5-yl]morpholine] | 129 nM |
| Cc1cc(N2CCN(C[C@H]3CN(c4ccc(C#N)n5ncc(F)c45)C[C@@H](C)O3)CC2)nc(N2CCNCC2)n1 [Example 67, 3-Fluoro-4-[(2R,6S)-2-methyl-6-[[4-(6-methyl-2-piperazin-1-yl-pyrimidin-4-yl)piperazin-1-yl]methyl]morpholin-4-yl]pyrazolo[1,5-a]pyridine-7-carbonitrile] | 81 nM |
| C[C@@H]1CN(c2ccc(C#N)n3ncc(F)c23)C[C@H](CN2CCN(c3ccc(N[C@H]4CNC[C@H]4F)nc3)CC2)O1 [Example 167, 3-fluoro-4-[(2S,6R)-2-[[4-[6-[[(3S,4R)-4-fluoropyrrolidin-3-yl]amino]-3-pyridyl]piperazin-1-yl]methyl]-6-methyl-morpholin-4-yl]pyrazolo[1,5-a]pyridine-7-carbonitrile] | 46 nM |

Further lines, results first:

| IC50 | SMILES |
| --- | --- |
| 188 nM | C[C@@H]1CN(c2ccc(C#N)c3ncccc23)C[C@H](CN2CCN(c3nc(N4CCNCC4)ncc3F)CC2)O1 [Example 45, 5-[(2S,6R)-2-[[4-(5-fluoro-2-piperazin-1-yl-pyrimidin-4-yl)piperazin-1-yl]methyl]-6-methyl-morpholin-4-yl]quinoline-8-carbonitrile] |
| 157 nM | Cc1nc(N2CCNCC2)nc(N2CCN(C[C@H]3CN(c4ccc(C#N)c5ncccc45)C[C@@H](C)O3)CC2)c1C [Example 46, 5-[(2S,6R)-2-[[4-(5,6-dimethyl-2-piperazin-1-yl-pyrimidin-4-yl)piperazin-1-yl]methyl]-6-methyl-morpholin-4-yl]quinoline-8-carbonitrile] |
| 67 nM | Cc1cc(N2CCN(C[C@H]3CN(c4ccc(C#N)c5ncccc45)C[C@@H](C)O3)CC2)nc(N2CCNCC2)n1 [Example 47, 5-[(2R,6S)-2-methyl-6-[[4-(6-methyl-2-piperazin-1-yl-pyrimidin-4-yl)piperazin-1-yl]methyl]morpholin-4-yl]quinoline-8-carbonitrile] |
| 121 nM | COc1cnc(N2CCNCC2)nc1N1CCN(C[C@H]2CN(c3ccc(C#N)c4ncccc34)C[C@@H](C)O2)CC1 [Example 48, 5-[(2S,6R)-2-[[4-(5-methoxy-2-piperazin-1-yl-pyrimidin-4-yl)piperazin-1-yl]methyl]-6-methyl-morpholin-4-yl]quinoline-8-carbonitrile] |
| 146 nM | C[C@@H]1CN(c2ccc(C#N)c3ncccc23)C[C@H](CN2CCN(c3nc(N4CCNCC4)nc4ccccc34)CC2)O1 [Example 49, 5-[(2R,6S)-2-methyl-6-[[4-(2-piperazin-1-ylquinazolin-4-yl)piperazin-1-yl]methyl]morpholin-4-yl]quinoline-8-carbonitrile] |
| 126 nM | C[C@@H]1CN(c2ccc(C#N)c3ncccc23)C[C@H](CN2CCN(c3nc(N4CCNCC4)ncc3C#N)CC2)O1 [Example 50, 5-[(2S,6R)-2-[[4-(5-cyano-2-piperazin-1-yl-pyrimidin-4-yl)piperazin-1-yl]methyl]-6-methyl-morpholin-4-yl]quinoline-8-carbonitrile] |
| 121 nM | C[C@@H]1CN(c2ccc(C#N)c3ncccc23)C[C@H](CN2CCN(c3ncc(C#N)c(N4CCNCC4)n3)CC2)O1 [Example 51, 5-[(2S,6R)-2-[[4-(5-cyano-4-piperazin-1-yl-pyrimidin-2-yl)piperazin-1-yl]methyl]-6-methyl-morpholin-4-yl]quinoline-8-carbonitrile] |
| 32 nM | Cc1cc(N2CCN(C[C@H]3CN(c4ccc(C#N)c5ncccc45)C[C@@H](C)O3)CC2)nc(N2C[C@@H](N)[C@@H](F)C2)n1 [Example 55, 5-[(2S,6R)-2-[[4-[2-[(3R,4S)-3-amino-4-fluoro-pyrrolidin-1-yl]-6-methyl-pyrimidin-4-yl]piperazin-1-yl]methyl]-6-methyl-morpholin-4-yl]quinoline-8-carbonitrile] |
| 34 nM | Cc1cc(N2CCN(C[C@H]3CN(c4ccc(C#N)c5ncccc45)C[C@@H](C)O3)CC2)nc(N2CCOCC(N)C2)n1 (stereo partly drawn) [Example 56, 5-[(2S,6R)-2-[[4-[2-(6-amino-1,4-oxazepan-4-yl)-6-methyl-pyrimidin-4-yl]piperazin-1-yl]methyl]-6-methyl-morpholin-4-yl]quinoline-8-carbonitrile] |
| 32 nM | Cc1cc(N2CCN(C[C@H]3CN(c4ccc(C#N)c5ncccc45)C[C@@H](C)O3)CC2)nc(N2CC3(CNCCO3)C2)n1 [Example 61, 5-[(2R,6S)-2-methyl-6-[[4-[6-methyl-2-(5-oxa-2,8-diazaspiro[3.5]nonan-2-yl)pyrimidin-4-yl]piperazin-1-yl]methyl]morpholin-4-yl]quinoline-8-carbonitrile] |
| 35 nM | Cc1cc(N2CCN(C[C@H]3CN(c4ccc(C#N)c5nccnc45)C[C@@H](C)O3)CC2)nc(N2CCNCC2)n1 [Example 64, 8-[(2R,6S)-2-methyl-6-[[4-(6-methyl-2-piperazin-1-yl-pyrimidin-4-yl)piperazin-1-yl]methyl]morpholin-4-yl]quinoxaline-5-carbonitrile] |
| 32 nM | Cc1cc(N2CCN(C[C@H]3CN(c4ccc(C#N)c5ncccc45)C[C@@H](C)O3)CC2)nc(N2CCNCC(O)C2)n1 (stereo partly drawn) [Example 66, 5-[(2S,6R)-2-[[4-[2-(6-hydroxy-1,4-diazepan-1-yl)-6-methyl-pyrimidin-4-yl]piperazin-1-yl]methyl]-6-methyl-morpholin-4-yl]quinoline-8-carbonitrile] |
| 95 nM | Cc1cc(N2CCNCC2)nc(N2CCN(C[C@H]3CN(c4ccc(C#N)c5ncccc45)C[C@@H](C)O3)CC2)n1 [Example 68, 5-[(2R,6S)-2-methyl-6-[[4-(4-methyl-6-piperazin-1-yl-pyrimidin-2-yl)piperazin-1-yl]methyl]morpholin-4-yl]quinoline-8-carbonitrile] |
